Laboratory results as given in US11083717B2, “Compositions and methods for drug sensitization of parasites” (The Texas A&M University System, priority 2015, dated 2021).
In brackets after ≈: the same amount, converted by molar mass. Read-outs that look alike come from different tables or passages of the source.

Assays:
Kinetic solubility = assay type: physicochemical
[1] = tested on: Cryptosporidium parvum (CP); assay: Cell culture model of Cryptosporidium parvum infection in HCT-8 cells, real-time qRT-PCR; assay type: cell-based; conditions: Cryptosporidium parvum
Summary of the method: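 HCT-8 monolayers were infected with C. parvum Iowa oocysts (1.5×10^4/well) for 3 h, then compounds were added after medium exchange and cells were incubated 41 h more (44 h total, 37 °C). Parasite Cp18S rRNA was measured by one-step SYBR qRT-PCR of lysates, normalized to host Hs18S, and % inhibition at the stated µM was derived from a standard curve.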

[2] = MCLint in vitro intrinsic clearance, mouse (MLM); assay type: in vitro ADME
S. cerevisiae = assay: in vitro; conditions: Saccharomyces cerevisiae
human fibroblast = assay: in vitro; conditions: human
Plasma protein binding = assay type: in vitro ADME; conditions: mouse, mice, read-out: PPB (converted)
[3] = HCLint in vitro intrinsic clearance, human (HLM); assay type: in vitro ADME
Cryptosporidium parvum = conditions: for effectiveness in the same type of test (IL-12 knockout mouse model): in vivo
Method: The anticryptosporidial activity of the in vitro inhibitors was assessed in the IL-12 knockout mouse model that resembles the acute human disease (Ehigiator H N, Romagnoli P, Borgelt K, Fernandez M, McNair N, Secor W E, Mead J R. 2005. Mucosal cytokine and antigen-specific responses to Cryptosporidium parvum in IL-12p40 KO mice. Parasite Immunol. 27: 17-28; Campbell L D, Stewart J N, Mead J R. 2002. Susceptibility to Cryptosporidium parvum infections in cytokine- and chemokine-receptor knockout mice. J. Parasitol. 88:1014-1016). The protocol was approved by the Institutional Animal Care and Use Committees of Emory University, the AtlantaVAMedical Center, and Brandeis University. Mice (6 to 10 per group) were inoculated with 1,000 purified CP oocysts (Iowa isolate, from cattle). Treatment by gavage began 4 h postinfection with either vehicle (5% dimethyl sulfoxide (DMSO) in canola oil), 50-100 mg/kg compound, or 2,000 mg/kg paromomycin. Compounds were given for 7 days, and mice were sacrificed on day 8 (peak infection). Parasite load was quantified by fluorescence-activated cell sorting (FACS) assays for the presence of the oocysts in the feces at days 0, 4, and 7. Fecal pellets from individual mice were routinely collected daily and homogenized in adjusted volumes of 2.5% potassium dichromate. Samples were processed individually. Aliquots (200 ul) of vortexed samples were processed over microscale sucrose gradients as previously described (Arrowood M J, Hurd M R, Mead J R. 1995. A new method for evaluating experimental cryptosporidial parasite loads using immunofluorescent flowcytometry. J. Parasitol. 81:404-409). The oocyst-containing fraction was collected, washed, and treated with monoclonal antibody (OW5O-FITC) for 20 min. Samples were adjusted to 600 ul, and a portion (100 ul) was assayed with a 102-s sampling interval using logical gating of forward/side scatter and OW5O-FITC fluorescence signal on a Becton, Dickinson FACScan flow cytometer. Flow cytometry data were evaluated by analysis of variance (KaleidaGraph (Synergy Software, Reading Pa.); Microsoft Excel (Microsoft Corporation, Redmond, Wash.)).
NZ-366 (50 mg/kg) and NZ-369 (100 mg/kg) were administered via gavage in a single daily dose to IL-12 knockout mice that were infected with 1,000 CP oocysts. Additional control groups included those treated with single daily doses of vehicle, and paromomycin (Prm) (2,000 mg/kg), by oral gavage.

[4] = target: Human ether-a-go-go-related gene (hERG) (Homo sapiens, UniProt Q12809); assay: hERG test (potential cardiotoxicity); assay type: biochemical; conditions: read-out: hERG (Abbvie)
[5] = 44 h, CP in HCT-8 cells, 44 h infection, 50% reduction of parasite growth vs control, NA: not active, read-out: MIC50

Human ether-a-go-go-related gene (hERG), sequence (Q12809 whole entry): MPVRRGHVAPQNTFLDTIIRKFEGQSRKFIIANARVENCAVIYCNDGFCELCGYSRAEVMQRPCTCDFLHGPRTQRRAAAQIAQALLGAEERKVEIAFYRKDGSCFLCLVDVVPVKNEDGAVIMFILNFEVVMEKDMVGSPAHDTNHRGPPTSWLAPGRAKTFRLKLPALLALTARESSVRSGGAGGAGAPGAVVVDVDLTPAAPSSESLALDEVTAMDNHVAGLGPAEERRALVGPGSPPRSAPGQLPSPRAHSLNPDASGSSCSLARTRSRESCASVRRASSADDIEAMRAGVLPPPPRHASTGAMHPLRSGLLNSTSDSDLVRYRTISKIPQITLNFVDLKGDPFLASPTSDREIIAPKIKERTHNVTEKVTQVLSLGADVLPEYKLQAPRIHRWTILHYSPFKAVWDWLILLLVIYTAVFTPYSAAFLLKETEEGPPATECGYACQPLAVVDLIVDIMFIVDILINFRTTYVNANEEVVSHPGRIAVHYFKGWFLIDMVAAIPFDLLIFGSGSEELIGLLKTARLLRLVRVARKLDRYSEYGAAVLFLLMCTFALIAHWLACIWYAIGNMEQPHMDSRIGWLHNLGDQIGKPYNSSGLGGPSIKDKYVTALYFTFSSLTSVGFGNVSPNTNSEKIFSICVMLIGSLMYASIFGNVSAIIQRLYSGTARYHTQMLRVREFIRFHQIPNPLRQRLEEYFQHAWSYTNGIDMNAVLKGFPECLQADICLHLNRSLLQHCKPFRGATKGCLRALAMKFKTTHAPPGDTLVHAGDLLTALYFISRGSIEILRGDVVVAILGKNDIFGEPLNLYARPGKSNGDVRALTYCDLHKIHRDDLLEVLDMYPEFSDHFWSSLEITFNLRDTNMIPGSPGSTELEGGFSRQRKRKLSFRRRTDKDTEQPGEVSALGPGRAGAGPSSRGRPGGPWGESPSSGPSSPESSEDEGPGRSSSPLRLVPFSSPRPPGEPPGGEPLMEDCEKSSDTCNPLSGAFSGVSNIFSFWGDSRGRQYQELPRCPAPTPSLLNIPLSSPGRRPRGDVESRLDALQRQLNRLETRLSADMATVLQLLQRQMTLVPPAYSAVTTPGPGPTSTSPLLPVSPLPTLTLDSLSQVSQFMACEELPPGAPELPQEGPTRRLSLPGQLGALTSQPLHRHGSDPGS

SMILES | Kinetic Sol. (Kinetic solubility) [µM] | MIC50 [1, 5] [nM] | MIC50 ([1]; read-out: MIC50 (nM) (CP)) | MCLint (mL/min/g liver), MLM [2] | concentrations at which not toxic, S. cerevisiae cytotoxicity testing (S. cerevisiae) [µM] | concentrations at which not toxic, human fibroblast cytotoxicity testing (human fibroblast) [µM] | IC50 (in vitro; Saccharomyces cerevisiae) [µM] | IC50 (in vitro; human) [µM] | fraction unbound (Plasma protein binding) | HCLint (mL/min/g liver), HLM [3] | effectiveness in the same type of test (IL-12 knockout mouse model) (Cryptosporidium parvum) | IC50 [4] [µM] | Mouse Model (Mead) DPI7 (Cryptosporidium parvum; @50 mg/kg, day 7 post infection) | inhibition at 31 µM ([1]; HCT-8, @31 uM, read-out: % (inhibition of CP) printed in the MIC50 (nM) (CP) column) [%]
CC(C)NC(=O)C(C)c1ccc(Oc2nc3ccc(Cl)cc3s2)cc1 (stereo not shown) [NZ-327, 2-{4-[(6-chloro-1,3-benzothiazol-2-yl)oxy]phenyl}-N-(propan-2-yl)propanamide] | 33 | 7 to 22 (≈ 0.00262 to 0.00825 µg/mL) | 7 to 22 (≈ 0.00262 to 0.00825 µg/mL) | MLM = 3.7 mL/min/g liver | ≥ 100 | ≥ 100 | > 100 | > 100 | 0.016 | HLM = 1.3 mL/min/g liver |  |  |  | 
CC(C(=O)N1CCNCC1)c1ccc(Oc2nc3ccc(Cl)cc3s2)cc1 (stereo not shown) [NZ-364, 2-{4-[(6-chloro-1,3-benzothiazol-2-yl)oxy]phenyl}-1-(piperazin-1-yl)propan-1-one] |  | 120 (≈ 0.0482 µg/mL) |  |  | ≥ 100 | ≥ 100 |  |  |  |  | effective |  |  | 
CC(C(=O)N1CCOCC1)c1ccc(Oc2nc3ccc(Cl)cc3s2)cc1 (stereo not shown) [NZ-365, 2-{4-[(6-chloro-1,3-benzothiazol-2-yl)oxy]phenyl}-1-(morpholin-4-yl)propan-1-one] | 28 | 25 (≈ 0.0101 µg/mL) | 25 (≈ 0.0101 µg/mL) | MLM = 10 mL/min/g liver | 50 to 100 | ≥ 100 | > 100 | > 100 |  | HLM = 4.8 mL/min/g liver |  | 12 |  | 
CC(C(=O)NCC(O)CO)c1ccc(Oc2nc3ccc(Cl)cc3s2)cc1 (stereo not shown) [NZ-372, 2-{4-[(6-chloro-1,3-benzothiazol-2-yl)oxy]phenyl}-N-(2,3-dihydroxypropyl)propanamide] |  | 85 (≈ 0.0346 µg/mL) |  |  | ≥ 100 |  |  |  |  |  | effective |  |  | 
CN1CCN(C(=O)Nc2ccc(Oc3nc4ccc(Cl)cc4s3)cc2)CC1 [NZ-475, N-{4-[(6-chloro-1,3-benzothiazol-2-yl)oxy]phenyl}-4-methylpiperazine-1-carboxamide] |  | 60 (≈ 0.0242 µg/mL) |  |  | ≥ 100 | ≥ 100 |  |  |  |  | effective |  |  | 
NC(=O)Cc1ccc(Oc2nc3cc(F)c(F)cc3s2)cc1F [NZ-496, 2-{4-[(5,6-difluoro-1,3-benzothiazol-2-yl)oxy]-2-fluorophenyl}acetamide] |  | 250 to 1000 (≈ 0.0846 to 0.338 µg/mL) |  |  | ≥ 100 | ≥ 100 |  |  |  |  |  |  |  | 
NC(=O)Cc1ccc(Oc2nc3ccc(Cl)cc3s2)cc1F [NZ-500, 2-{4-[(6-chloro-1,3-benzothiazol-2-yl)oxy]-2-fluorophenyl}acetamide] |  | ~250 (≈ 0.0842 µg/mL) |  |  | ≥ 100 | ≥ 100 |  |  |  |  |  |  |  | 
NC(=O)Cc1ccc(Oc2nc3ccc(Cl)cc3s2)cc1 [NZ-505, 2-{4-[(6-chloro-1,3-benzothiazol-2-yl)oxy]phenyl}acetamide] |  | ~250 (≈ 0.0797 µg/mL) |  |  | ≥ 100 | ≥ 100 |  |  |  |  |  |  |  | 
CC(C(=O)NCCN(C)C)c1ccc(Oc2nc3ccc(Cl)cc3s2)cc1 (stereo not shown) [NZ-516, 2-{4-[(6-chloro-1,3-benzothiazol-2-yl)oxy]phenyl}-N-[2-(dimethylamino)ethyl]propanamide] | 100 | 16 (≈ 0.00646 µg/mL) | 16 (≈ 0.00646 µg/mL) | MLM = 4.1 mL/min/g liver | ≥ 100 | ≥ 100 | > 100 | 5.6 |  | HLM = 0.54 mL/min/g liver | effective | 2.7 | DPI7 = 94% | 
CC(C(=O)NC1CC1)c1ccc(Oc2nc3ccc(Cl)cc3s2)cc1 (stereo not shown) [NZ-538, 2-{4-[(6-chloro-1,3-benzothiazol-2-yl)oxy]phenyl}-N-cyclopropylpropanamide] |  | 54 (≈ 0.0201 µg/mL) | 54 (≈ 0.0201 µg/mL) | MLM = 3.9 mL/min/g liver |  |  | > 100 | > 100 |  | HLM = 0.7 mL/min/g liver |  | 7.3 |  | 
CC(C(=O)NC1CCC1)c1ccc(Oc2nc3ccc(Cl)cc3s2)cc1 (stereo not shown) [NZ-539, 2-{4-[(6-chloro-1,3-benzothiazol-2-yl)oxy]phenyl}-N-cyclobutylpropanamide] |  | 57 (≈ 0.0221 µg/mL) | 57 (≈ 0.0221 µg/mL) | MLM = 4.4 mL/min/g liver |  |  | > 100 | > 100 |  | HLM = 1.8 mL/min/g liver |  | > 30 |  | 
COCCNC(=O)C(C)c1ccc(Oc2nc3ccc(Cl)cc3s2)cc1 (stereo not shown) [NZ-541, 2-{4-[(6-chloro-1,3-benzothiazol-2-yl)oxy]phenyl]-N-(2-methoxyethyl)propanamide] |  | 81 (≈ 0.0317 µg/mL) | 81 (≈ 0.0317 µg/mL) | MLM = 6.3 mL/min/g liver |  |  | > 100 | > 100 |  | HLM = 2.0 mL/min/g liver |  | 27 |  | 
CC(C(=O)NC1COC1)c1ccc(Oc2nc3ccc(Cl)cc3s2)cc1 (stereo not shown) [NZ-543, 2-{4-[(6-chloro-1,3-benzothiazol-2-yl)oxy]phenyl}-N-(oxetan-3-yl)propanamide] |  | 45 (≈ 0.0175 µg/mL) | 45 (≈ 0.0175 µg/mL) | MLM = 2 mL/min/g liver |  |  | > 100 | > 100 |  | HLM = 1.2 mL/min/g liver |  | 24 |  | 
CC(C(=O)NC1CCOC1)c1ccc(Oc2nc3ccc(Cl)cc3s2)cc1 (stereo not shown) [NZ-544, 2-{4-[(6-chloro-1,3-benzothiazol-2-yl)oxy]phenyl}-N-(oxolan-3-yl)propanamide] |  | 72 (≈ 0.029 µg/mL) | 72 (≈ 0.029 µg/mL) | MLM = 3.3 mL/min/g liver |  |  | > 100 | > 100 |  | HLM = 2.6 mL/min/g liver |  | 11 |  | 
CC(C(=O)N1CCS(=O)(=O)CC1)c1ccc(Oc2nc3ccc(Cl)cc3s2)cc1 (stereo not shown) [NZ-553, 4-(2-{4-[(6-chloro-1,3-benzothiazol-2-yl)oxy]phenyl}propanoyl)-1λ^6,4-thiomorpholine-1,1-dione] | 100 | 2 (≈ 0.000902 µg/mL) | 2 (≈ 0.000902 µg/mL) | MLM = 1.28 mL/min/g liver |  |  | > 100 | 40 | 0.01 | HLM = 0.87 mL/min/g liver |  | 11 |  | 
CC(C(=O)NCCS(C)(=O)=O)c1ccc(Oc2nc3ccc(Cl)cc3s2)cc1 (stereo not shown) [NZ-578, 2-{4-[(6-chloro-1,3-benzothiazol-2-yl)oxy]phenyl}-N-(2-methanesulfonylethyl)propanamide] |  | 18 (≈ 0.0079 µg/mL) | < 30 |  |  |  |  | > 100 |  |  |  |  |  | 83
